From US7341998B2 (The Board of Trustees of the Leland Stanford Junior …, priority 2005, dated 2008)
pKi: −log10 of the molar value.

Biological target: voltage-gated Na channels
Type: cell-based, squid (Loligo opalescens)

MKLTCVLVVLLLLLPYGDLITNNYIRGAARKVTPWRRNLKTRDVCDSLVGGHCIHNGCWCDQEAPHGNCCDTDGCTAAWWCPGTKWD [calTx1.1A]
pKi: ~7.82
Na-channel blocking activity (block): 55%
reversibility of INa reduction/block: reversibly blocked INa
steady-state voltage-dependence of fast inactivation of residual INa: not significantly affected
time course of residual prepulse-sensitive INa: not significantly different than normal
voltage dependence of block: potency decreasing e-fold in: 300-400 mV
